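A five-concentration, 48-hour dose response in 96-well plates underlies each endpoint, interpolated linearly between surrounding concentrations. At the TGI there is no net growth.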
Experiments:
Test in all cases: NCI-60 cell line screen, 48 h
[1] = tested on: M14 melanoma
[2] = tested on: SK-OV-3 ovarian
[3] = tested on: HL-60(TB) leukemia
[4] = tested on: ACHN renal
[5] = tested on: RPMI-8226 leukemia
[6] = tested on: U251 CNS
[7] = tested on: SNB-75 CNS
[8] = tested on: NCI-H460 lung
[9] = tested on: A498 renal
[10] = tested on: NCI/ADR-RES ovarian
[11] = tested on: CAKI-1 renal
[12] = tested on: NCI-H23 lung
[13] = tested on: UO-31 renal
[14] = tested on: LOX IMVI melanoma
[15] = tested on: MDA-N
[16] = tested on: SF-295 CNS
[17] = tested on: MDA-MB-231 breast
[18] = tested on: IGROV1 ovarian

Row | SMILES | TGI [1] [µM] | TGI [2] [µM] | TGI [3] [µM] | TGI [4] [µM] | TGI [5] [µM] | TGI [6] [µM] | TGI [7] [µM] | TGI [8] [µM] | TGI [9] [µM] | TGI [10] [µM] | TGI [11] [µM] | TGI [12] [µM] | TGI [13] [µM] | TGI [14] [µM] | TGI [15] [µM] | TGI [16] [µM] | TGI [17] [µM] | TGI [18] [µM]
1 | Cc1ccc(S(=O)(=O)N/N=C2\C=C[C@]3(CC2)C(=O)N(C)c2ccccc23)cc1 | > 100 | > 100 | > 100 | > 100 | > 100 | > 100 | > 100 | > 100 | > 100 | > 100 | > 100 | > 100 | > 100 | > 100 | > 100 | > 100 | > 100 | > 100
2 | CC1(C)CC(=O)c2c(nc3ccc4ccccc4c3c2-c2ccc(NC(=O)CCCCC(=O)Nc3ccc(-c4c5c(nc6ccc7ccccc7c46)CC(C)(C)CC5=O)cc3)cc2)C1 | > 100 | > 100 | > 100 | > 100 | > 100 | > 100 | > 100 | > 100 | > 100 | > 100 | > 100 | > 100 | > 100 | > 100 | > 100 | > 100 | > 100 | > 100
3 | O=C(O)c1ccccc1/C=N\NC1=NCCN1 | > 100 | > 100 | > 100 | > 100 | > 100 | > 100 | > 100 | > 100 | > 100 | > 100 | > 100 | > 100 | > 100 | > 100 | > 100 | > 100 | > 100 | > 100
4 | COC(=O)C1=C(C)NC(C)=C([N+](=O)[O-])C1c1cccc(NO)c1 (stereo unspecified) | 12.3 | > 85.6 | 5.57 | > 44.9 | 12.6 | > 100 | > 100 | 17.5 | 70 | 46.6 | > 52.7 | > 100 | 24.1 | 15.5 | 4.14 | 23.1 | 17 | 22.9
5 | CC(C)(C)OC(=O)NC(Cc1ccc([N+](=O)[O-])cc1)C(=O)NC(CCCCNC(=O)OCc1ccccc1)C(=O)ON1C(=O)CCC1=O (stereo unspecified) | > 100 | > 100 | > 100 | > 100 | > 100 | > 100 | > 100 | > 100 | > 100 | > 100 | > 100 | > 100 | > 100 | > 100 | > 100 | > 100 | > 100 | > 100
6 | C#CCOC(=O)c1ccccc1OC(C)=O | > 100 | > 100 | > 100 | > 100 | > 100 | > 100 | > 100 | > 100 | > 100 | > 100 | > 100 | > 100 | > 100 | > 100 | > 100 | > 100 | > 100 | > 100
7 | Cc1cccc2c1C(=O)C(C1OC(=O)c3ccccc31)C2 (stereo unspecified) | – | > 100 | > 100 | > 100 | > 100 | > 100 | > 100 | > 100 | > 100 | > 100 | > 100 | > 100 | > 100 | > 100 | > 100 | > 100 | > 100 | > 100
8 | CN1C[C@@H]2CCCN2P1Oc1cccc2cccnc12 (stereo partly specified) | > 100 | > 100 | 72.9 | > 100 | 66.2 | > 100 | > 100 | > 100 | > 100 | 62.3 | > 100 | 57.7 | > 100 | > 100 | > 100 | > 100 | > 100 | > 100
9 | Cc1nc2c(-c3ccccc3)[nH]c(C)c2c(=O)o1 | > 100 | > 100 | > 100 | > 100 | > 100 | > 100 | > 100 | > 100 | > 100 | > 100 | > 100 | > 100 | > 100 | > 100 | > 100 | > 100 | > 100 | > 100
10 | C[N+]1(C)CN(c2ccccc2)C2(CCN(CCCC(=O)c3cccs3)CC2)C1=O | 51.9 | > 100 | > 100 | > 100 | > 100 | > 100 | > 100 | > 100 | > 100 | > 100 | > 100 | > 100 | > 100 | > 100 | > 100 | > 100 | > 100 | > 100
11 | O=C1c2cc(CCl)sc2C(=O)c2ccsc21 | 0.0462 | 3.36 | 0.497 | 1.25 | 0.558 | 1.14 | 0.38 | 2.63 | 3.01 | 0.468 | 3.09 | 0.136 | 0.962 | 0.149 | 0.0343 | 0.245 | 0.588 | 2.83
12 | CC(C)(C)/C(O)=C\c1nc2cc(C(F)(F)F)ccc2[nH]c1=O | > 100 | > 100 | 19.8 | > 100 | > 100 | > 100 | > 100 | – | > 100 | > 100 | > 100 | > 100 | > 100 | > 100 | > 100 | > 100 | > 100 | > 100
13 | CC1(C)OCN(c2ccc(Cl)cc2)Cn2c1nc1ccccc12 | > 100 | > 100 | 47.8 | > 100 | > 100 | > 100 | > 100 | > 100 | > 100 | > 100 | – | > 100 | 97.1 | > 100 | > 100 | > 100 | > 100 | > 26.7

Reference: PubChem BioAssay (NCI)
